In patent publication US12617762B2, “Carboxy derivatives with antiinflamatory properties” (Sitryx Therapeutics Limited, priority 2019, dated 2026):
Read-outs that look alike come from different tables or passages of the source.

Legend:
[1] = tested on: NRF2 (nuclear factor erythroid 2-related factor 2); assay: NRF2 +/-GSH activation assay (DiscoverX PathHunter NRF2 translocation kit, U2OS cells); type: cell-based; details: for NRF2 activation +GSH Emax / NRF2 activation −GSH Emax: normalised to DMF high control
Method: Measuring Compound Activation Effects on the Anti-Inflammatory Transcription Factor NRF2 in DiscoverX PathHunter NRF2 Translocation Kit
Potency and efficacy of compounds of formula (I) against the target of interest to activate NRF2 (nuclear factor erythroid 2-related factor 2) were determined using the PathHunter NRF2 translocation kit (DiscoverX). The NRF2 translocation assay was run using an engineered recombinant cell line, utilising enzyme fragment complementation to determine activation of the Keap1-NRF2 protein complex and subsequent translocation of NRF2 into the nucleus. Enzyme activity was quantified using a chemiluminescent substrate consumed following the formation of a functional enzyme upon PK-tagged NRF2 translocation into the nucleus.
The assay was run under both +/−GSH (glutathione) conditions to determine the sensitivity of the compounds' NRF2-activating abilities to attenuation by GSH.
Additionally, a defined concentration of DMF was used as the ‘High’ control to normalise test compound activation responses to.
U2OS PathHunter eXpress cells were thawed from frozen prior to plating. Following plating, U2OS cells were incubated for 24 hrs (37° C./5% CO2) in commercial kit provided cell medium.
Following 24 hrs of U2OS incubation, cells were directly treated with an appropriate final concentration of compound, for −GSH conditions or, for +GSH conditions, an intermediate plate containing 6× working concentrations of compound stocks was prepared in a 6 mM working concentration of GSH solution (solubilised in sterile PBS). Following a 30 minute compound-GSH pre-incubation (37° C./5% CO2) for +GSH treatment, plated U2OS cells were incubated with an appropriate final concentration of compound and GSH.
Following compound (+/−GSH) treatment, the U2OS plates were incubated for a further 6 hours (37° C./5% CO2) before detection reagent from the PathHunter NRF2 commercial kit was prepared and added to test plates according to the manufacturer's instructions. Subsequently, the luminescence signal detection was measured in a microplate reader (PHERAstar®, BMG Labtech).
Percentage activation was calculated by normalising the sample data to the high and low controls used within each plate (+/−DMF).

[2] = tested on: IL-1β cytokine output from THP-1s; assay: THP-1 AlphaLISA IL-1β cytokine inhibition assay; type: cell-based; details: for IC50: LPS then nigericin; for IL-1β lowering, result in words: THP-1 IL-1β assay
Method: Measuring Inhibitory Effects on IL-1β Cytokine Output from THP-1s
The cytokine inhibition profiles of compounds of formula (I) were determined in a differentiated THP-1 cell assay. All assays were performed in RPMI-1640 growth medium (Gibco), supplemented with 10% fetal bovine serum (FBS; Gibco), 1% penicillin-streptomycin and 1% sodium pyruvate unless specified otherwise. The IL-1β cytokine inhibition assay was run in a background of differentiated THP-1 cells as described below. All reagents described were from Sigma-Aldrich unless specified otherwise. Compounds were prepared as 10 mM DMSO stocks.
THP-1 cells were expanded as a suspension up to 80% confluence in appropriate growth medium. Cells were harvested, suspended, and treated with an appropriate concentration of phorbol 12-myristate 13-acetate (PMA) over a 72 hr period (37° C./5% CO2).
Following 72 hrs of THP-1 cell incubation, cellular medium was removed and replaced with fresh growth media containing 1% of FBS. Working concentrations of compounds were prepared separately in 10% FBS treated growth medium and pre-incubated with the cells for 30 minutes (37° C./5% CO2). Following the 30 minute compound pre-incubation, THP-1s were treated with an appropriate concentration of LPS and the cells were subsequently incubated for a 24 hr period (37° C./5% CO2). An appropriate final concentration of Nigericin was then dispensed into the THP-1 plates and incubated for 1 hour (37° C./5% CO2) before THP-1 supernatants were harvested and collected in separate polypropylene 96-well holding plates.
Reagents from an IL-1β and IL-6 commercial kit (Perkin Elmer) were prepared and run according to the manufacturer's instructions. Subsequently, fluorescence signal detection in a microplate reader was measured (EnVision® Multilabel Reader, Perkin Elmer).
Percentage inhibition was calculated per cytokine by normalising the sample data to the high and low controls used within each plate (+/− LPS respectively).

[3] = +GSH, 30 minute compound-GSH pre-incubation, read-out: NRF2 activation +GSH EC50
[4] = −GSH, U2OS PathHunter cells, 6 hours compound treatment, read-out: NRF2 activation −GSH EC50
[5] = Homo sapiens, THP-1, differentiated THP-1 cells

SMILES | EC50 [1, 3] [µM] | NRF2 activation +GSH Emax ([1]; +GSH) [%] | EC50 [1, 4] [µM] | NRF2 activation −GSH Emax ([1]; −GSH) [%] | IC50 ([2]; differentiated THP-1 cells) [µM] | IC50 [2, 5] [µM] | IL-1β lowering, result in words [2]
C=C(Cc1nc(-c2ccc(O[C@H](C)CC)cc2)no1)C(=O)O [Example 144, (R)-2-((3-(4-(sec-butoxy)phenyl)-1,2,4-oxadiazol-5-yl)methyl)acrylic acid] | 31.1 | 139 | 28.4 | 167 | > 100 |  | 
C=C(Cc1nc(Cc2ccc(C)c(Cl)c2)no1)C(=O)O [Example 165, 2-((3-(3-chloro-4-methylbenzyl)-1,2,4-oxadiazol-5-yl)methyl)acrylic acid] | > 100 | 16 | > 100 | 25 |  | > 100 | 
C=C(Cc1nc(-c2ccc(OCCCC)c(Cl)c2)no1)C(=O)O [Example 160, 2-((3-(4-butoxy-3-chlorophenyl)-1,2,4-oxadiazol-5-yl)methyl)acrylic acid] | 4.1 | 238 | 5 | 216 |  | > 10 | 
C=C(Cc1nc(Cc2cc(F)c(Cl)c(F)c2)no1)C(=O)O [Example 164, 2-((3-(4-chloro-3,5-difluorobenzyl)-1,2,4-oxadiazol-5-yl)methyl)acrylic acid] | 63.4 | 5.5 | 42.7 | 62 |  | > 100 | 
C=C(Cc1nc(CCCCCCC(F)(F)CF)no1)C(=O)O [Example 47, 2-((3-(7,7,8-trifluorooctyl)-1,2,4-oxadiazol-5-yl)methyl)acrylic acid] | 47.1 | 86 | 41.4 | 131 |  | > 100 | not effective
C=C(Cc1nc(C23CC4CC(CC(C4)C2)C3)no1)C(=O)O [Example 66, 2-((3-(adamantan-1-yl)-1,2,4-oxadiazol-5-yl)methyl)acrylic acid] | > 100 | 14 | > 100 | 23 |  | > 100 | not effective
C=C(Cc1nc(-c2ccc(OC3CCC3)cc2)no1)C(=O)O [Example 142, 2-((3-(4-cyclobutoxyphenyl)-1,2,4-oxadiazol-5-yl)methyl)acrylic acid] | 26.9 | 168 | 23.3 | 189 |  | > 100 | 
C=C(Cc1nc(C2(c3ccc([S+]([O-])C(F)(F)F)cc3)CC2)no1)C(=O)O (stereo not shown) [Example 157, 2-((3-(1-(4-((trifluoromethyl)sulfinyl)phenyl)cyclopropyl)-1,2,4-oxadiazol-5-yl)methyl)acrylic acid] | > 100 | −5 | > 100 | 41 |  | > 100 | 
C=C(Cc1nc(C2(c3ccccc3Cl)CC2)no1)C(=O)O [Example 24, 2-((3-(1-(2-chlorophenyl)cyclopropyl)-1,2,4-oxadiazol-5-yl)methyl)acrylic acid] | > 100 | 17 | 42.4 | 57 |  | > 100 | not effective
C=C(Cc1nc(C2CCCCC2)no1)C(=O)O [Example 64, 2-((3-cyclohexyl-1,2,4-oxadiazol-5-yl)methyl)acrylic acid] | > 100 | 17 | > 100 | 86 |  | > 100 | not effective
C=C(Cc1nc(-c2ccc(OCCC)c(Cl)c2)no1)C(=O)O [Example 130, 2-((3-(3-chloro-4-propoxyphenyl)-1,2,4-oxadiazol-5-yl)methyl)acrylic acid] | 37.4 | 129 | 36.5 | 177 |  | > 100 | 
C=C(Cc1ncn(CCCCCCCC)n1)C(=O)O [Example 13, 2-((1-octyl-1H-1,2,4-triazol-3-yl)methyl)acrylic acid] | 48.6 | 51 | 43.1 | 54 |  | > 100 | not effective
C=C(Cc1nc(-c2ccc(OCCCC)c(C(F)(F)F)c2)no1)C(=O)O [Example 161, 2-((3-(4-butoxy-3-(trifluoromethyl)phenyl)-1,2,4-oxadiazol-5-yl)methyl)acrylic acid] | 7.2 | 114 | 25.1 | 258 |  | > 10 | 
C=C(Cc1nc(Cc2cccc(CCCC)c2)no1)C(=O)O [Example 29, 2-((3-(3-butylbenzyl)-1,2,4-oxadiazol-5-yl)methyl)acrylic acid] | 11.2 | 183 | 7.6 | 179 |  | 22.8 | 
C=C(Cc1noc(-c2ccc(OCCCC)cc2)n1)C(=O)O [Example 96, 2-((5-(4-butoxyphenyl)-1,2,4-oxadiazol-3-yl)methyl)acrylic acid] | 12.4 | 115 | 11.7 | 170 |  | > 31.6 | 
C=C(Cc1nc(C(F)(F)c2ccc(F)cc2)no1)C(=O)O [Example 125, 2-((3-(difluoro(4-fluorophenyl)methyl)-1,2,4-oxadiazol-5-yl)methyl)acrylic acid] | > 100 | 26 | > 100 | 37 |  | > 100 | 
